target: T1, HIV-integrase (recombinant integrase) (Human immunodeficiency virus type 1 group M subtype B, UniProt P12497); assay: HIV-Integrase Inhibition Activity (SPA bead strand-transfer assay); assay type: biochemical; conditions: biotin labeled substrate DNA on SPA beads, P33 labeled target DNA, read-out: Activity (IC50 against HIV-integrase)
T1 construct: Recombinant integrase (0.26 ng) was incubated with the beads
Description: HIV-Integrase Inhibition Activity. To evaluate in-vitro activity against HIV-integrase, 5 pmole of biotin labeled substrate DNA was bound to 100 μg of Streptavidin coated PVT SPA beads (Amersham Pharmacia Biotech). Recombinant integrase (0.26 ng) was incubated with the beads for 90 min at 37° C. Unbound enzyme was removed by washing the complex followed by addition of inhibitors and 0.1 fmol of P33 labeled target DNA. The reaction was stopped by adding EDTA to a final concentration of 10 mM. Samples were counted in TopCountNXT (Packard) and the CPM was used as a measure of integration. The reaction condition was as described in A. Engelman and R. Craigie, J. Virol. 69, 5908-5911 (1995). The sequences of substrate and target DNA were described in Nucleic Acid Research 22, 1121-1122 (1994). Activity equal to A refers to a compound having IC50=0.002 to 0.10 μM while B and C denote compounds having IC50=0.1 to 1.0 μM and IC50≧1.0 μM respectively.

| Compound | IC50 [nM] |
| --- | --- |
| Cc1cc(CNC(=O)c2nc3n(c(=O)c2O)CCCS(=O)(=O)C32CCOCC2)ccc1F [Example 27, Spiro[4H-pyran-4,10′(4′H)-[6H]pyrimido[2,1-c][1,4]thiazepine]-2′-carboxamide, N-[(4-fluoro-3-methylphenyl)methyl]-2,3,5,6,7′,8′-hexahydro-3′-hydroxy-4′-oxo-, 9′,9′-dioxide] | 2 to 100 |
| O=C(NCc1ccc(F)cc1-n1cncn1)c1nc2n(c(=O)c1O)CCCS(=O)(=O)C21CCOCC1 [Example 28, Spiro[4H-pyran-4,10′(4′H)-[6H]pyrimido[2,1-c][1,4]thiazepine]-2′-carboxamide, N-[[4-fluoro-2-(1H-1,2,4-triazol-1-yl)phenyl]methyl]-2,3,5,6,7′,8′-hexahydro-3′-hydroxy-4′-oxo-, 9′,9′-dioxide] | 2 to 100 |
| Cc1ncnn1-c1cc(F)ccc1CNC(=O)c1nc2n(c(=O)c1O)CCCS(=O)(=O)C21CCOCC1 [Example 29, Spiro[4H-pyran-4,10′(4′H)-[6H]pyrimido[2,1-c][1,4]thiazepine]-2′-carboxamide, N-[[4-fluoro-2-(5-methyl-1H-1,2,4-triazol-1-yl)phenyl]methyl]-2,3,5,6,7′,8′-hexahydro-3′-hydroxy-4′-oxo-, 9′,9′-dioxide] | 2 to 100 |

Source: patent US7897592B2, “HIV integrase inhibitors” (priority 2005, dated 2011)
